In brackets after ≈: the same amount, converted by molar mass. Activity calls are given as the source filed them. No cut-off for these calls is given here.
How the values were obtained:
Staphylococcus aureus [1] = assay: Antibacterial activity against Staphylococcus aureus 209-P assessed as growth inhibition at 0.1% after 24 hr by agar disk diffusion method; type: functional
Staphylococcus aureus [2] = assay: Antibacterial activity against Staphylococcus aureus 209-P assessed as growth inhibition at 0.5% after 24 hr by agar disk diffusion method; type: functional
Aspergillus niger [3] = assay: Antifungal activity against Aspergillus niger assessed as growth inhibition after 24 to 72 hr by serial dilution method; type: functional
Mycobacterium [4] = assay: Antibacterial activity against Mycobacterium luteum B-917 assessed as growth inhibition at 0.1% after 24 hr by agar disk diffusion method; type: functional
Escherichia coli [5] = assay: Antibacterial activity against Escherichia coli B 906 assessed as growth inhibition at 0.5% after 24 hr by agar disk diffusion method; type: functional
Mycobacterium [6] = assay: Antibacterial activity against Mycobacterium luteum B-917 assessed as growth inhibition after 24 to 72 hr by serial dilution method; type: functional
Aspergillus niger [7] = assay: Antifungal activity against Aspergillus niger assessed as growth inhibition at 0.5% after 48 to 72 hr by agar disk diffusion method; type: functional
Yamadazyma tenuis [8] = assay: Antifungal activity against Candida tenuis assessed as growth inhibition after 24 to 72 hr by serial dilution method; type: functional
Escherichia coli [9] = assay: Antibacterial activity against Escherichia coli B 906 assessed as growth inhibition at 0.1% after 24 hr by agar disk diffusion method; type: functional
Yamadazyma tenuis [10] = assay: Antifungal activity against Candida tenuis assessed as growth inhibition at 0.5% after 48 to 72 hr by agar disk diffusion method; type: functional
Yamadazyma tenuis [11] = assay: Antifungal activity against Candida tenuis assessed as growth inhibition at 0.1% after 48 to 72 hr by agar disk diffusion method; type: functional
Aspergillus niger [12] = assay: Antifungal activity against Aspergillus niger assessed as growth inhibition at 0.1% after 48 to 72 hr by agar disk diffusion method; type: functional
Staphylococcus aureus [13] = assay: Antibacterial activity against Staphylococcus aureus 209-P assessed as growth inhibition after 24 to 72 hr by serial dilution method; type: functional
Escherichia coli [14] = assay: Antibacterial activity against Escherichia coli B 906 assessed as growth inhibition after 24 to 72 hr by serial dilution method; type: functional, organism-based
Mycobacterium [15] = assay: Antibacterial activity against Mycobacterium luteum B-917 assessed as growth inhibition at 0.5% after 24 hr by agar disk diffusion method; type: functional

MIC (Aspergillus niger [3]) | MIC (Mycobacterium [6]) | MIC (Yamadazyma tenuis [8]) | MIC (Staphylococcus aureus [13]) | MIC (Escherichia coli [14]) | Compound | diameter of the inhibition zone (DIZ) (Staphylococcus aureus [1]) [mm] | diameter of the inhibition zone (DIZ) (Staphylococcus aureus [2]) [mm] | diameter of the inhibition zone (DIZ) (Mycobacterium [4]) [mm] | diameter of the inhibition zone (DIZ) (Escherichia coli [5]) [mm] | diameter of the inhibition zone (DIZ) (Aspergillus niger [7]) [mm] | diameter of the inhibition zone (DIZ) (Escherichia coli [9]) [mm] | diameter of the inhibition zone (DIZ) (Yamadazyma tenuis [10]) [mm] | diameter of the inhibition zone (DIZ) (Yamadazyma tenuis [11]) [mm] | diameter of the inhibition zone (DIZ) (Aspergillus niger [12]) [mm] | diameter of the inhibition zone (DIZ) (Mycobacterium [15]) [mm]
31.2 µg/mL (≈ 53.8 µM) | inactive | 7.8 µg/mL (≈ 13.4 µM) | inactive | inactive | O=C1C(SCc2ccc(Cl)cc2)=C(N2CCC(C(O)(c3ccccc3)c3ccccc3)CC2)C(=O)c2ccccc21 | 0 | 0 | 0 | 0 | 0 | 0 | 0 | 0 | 0 | 0
inactive | 250 µg/mL (≈ 628 µM) | inactive | inactive | inactive | O=C1C(SCc2ccc(Cl)cc2)=C(N2CCCCC2)C(=O)c2ccccc21 | 0 | 0 | 0 | 0 | 0 | 0 | 0 | 0 | 0 | 9

— ChEMBL document CHEMBL3045787, “Synthesis of novel 1,4-naphthoquinone derivatives: antibacterial and antifungal agents” (2013)
